Data: patent US20090076029A1 (Palatin Technologies, Inc., priority 2007, published 2009)

How the values were obtained:
[1] = molecular target: T1, hMC3-R; experiment: Competitive inhibition assay using [I125]-NDP-α-MSH, hMC3-R membranes; type: binding, human; details: read-out: Ki (nM) (NDP-α-MSH) MC3-R
T1 construct: expressed in transfected cells; host or cells: HEK-293
Summary of the method: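 Single-concentration displacement (usually 1 μM compound) of 0.2–0.4 nM [125I]-NDP-α-MSH, run 90 min at room temperature in pH 7.2 HEPES containing MgCl2, CaCl2 and KCl. Receptor sources: transfected HEK-293 membranes for human MC3-R/MC4-R/MC5-R, B-16 mouse melanoma membranes for MC1-R. Bound counts normalised to 1 μM α-MSH-defined specific binding; triplicates averaged, values below 0% set to 0%.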

[2] = tested on: T2, hMC5-R; experiment: cAMP functional assay, HEK-293 cells expressing hMC5-R; type: cell-based, human; details: cAMP assay at 1 μM
T2 construct: expressed in transfected cells; host or cells: HEK-293

[3] = molecular target: T3, MC1-R; experiment: Competitive inhibition assay using [I125]-NDP-α-MSH, MC1-R membranes; type: binding, mouse
T3 construct: other: 1 μM compound

[4] = tested on: T4, MC4-R; type: cell-based
T4 construct: expressed in transfected cells; host or cells: HEK-293
Experimental: Antagonists of AgRP. […] The experimental protocol was essentially as described above for the antagonist assay. […] HEK-293 cells expressing MC4-R were suspended in 10 mM HEPES (pH 7.5) and Earle's Balanced Salt Solution with the phosphodiesterase inhibitor IBMX. The cells were pre-incubated for 30 minutes with the test compounds over a concentration of 0.5 nM to 5000 nM. The cells were then treated with AgRP (100 nM) and incubated for 1 hour. Cells were lysed and cAMP was measured using an EIA kit (Amersham).

[5] = tested on: T5, mutant L250Q MC4-R; experiment: Reversal of AgRP inverse agonism in cells expressing mutant L250Q MC4-R; type: cell-based, human; details: HEK-293 cells expressing mutant L250Q MC4 receptors; FIG. 8
T5 construct: expressed in transfected cells
Description: Expression of recombinant mutant hMC4-R in which a glutamine is exchanged for leucine in amino acid position 250 (L250Q) results in production of increased levels of cAMP in the absence of agonist (Vaisse C. et al., Melanocortin-4 receptor mutations are a frequent and heterogeneous cause of morbid obesity. J Clin Invest 106:253-262, 2000). In some cases, reversal of the inverse agonist activity of AgRP was examined in cells that expressed mutant L250Q MC4-R coupled to a high level of constitutive activity. FIG. 8 illustrates the results obtained with the mutant L250Q MC4-R system.

[6] = tested on: T4, MC4-R; type: cell-based; remark: listed apart in the source
Description: Assay for Antagonists of AgRP in HEK-293/MC4-R Cells stimulated with Forskolin. […] AgRP causes a decrease in the basal adenylyl cyclase activity only to the extent of 40-50%. Even though the AgRP-induced decrease in cAMP levels is substantial, conventional assay methods, such as those described above, have limited sensitivity, precluding detecting small changes that are reversed by certain antagonists to AgRP. This limitation was circumvented by the use of a non-specific activator, forskolin, which directly activates adenylyl cyclase activity and raises cyclic AMP levels. Forskolin, a cell permeable diterpenoid initially isolated from Coleus forskohlii, has the ability to stimulate adenylyl cyclase activity and increase intracellular cAMP, thus activating cAMP-dependent protein kinase and other cAMP receptor proteins. See, e.g., Seamon, K. B., Daly, J. W. Forskolin: a unique diterpene activator of cyclic AMP-generating system. J. Cyclic Nucleotide Res. 7(4):201-24, 1981; Fradkin, J. E., Cook, G. H., Kilhoffer, M. C., Wolff, J. Forskolin stimulation of thyroid adenylate cyclase and cyclic 3′,5′-adenosine monophosphate accumulation. Endocrinology 111 (3):849-56, 1982; Barber, R., Goka, T. J. Adenylate cyclase activity as a function of forskolin concentration. J. Cyclic Nucleotide Protein Phosphor. Res. 10(1):23-9, 1985; and Laurenza, A., Sutkowski, E. M., Seamon, K. B. Forskolin: a specific stimulator of adenylyl cyclase or a diterpene with multiple sites of action? Trends Pharmacol. Sci. 10(11):442-7, 1989. […] The EC50 value was about 5 μM. AgRP inhibited the forskolin-induced response by 65% at a concentration of 10 nM. The difference in forskolin stimulated response and the inhibition due to AgRP in the cAMP levels was exploited to screen compounds for their ability to antagonize AgRP inhibition and […] levels of cAMP accumulation.
Experimental details for assays included incubating cells with the test compound in the presence of the inverse agonist AgRP with the extent of reversal of the AgRP effect measured by following the increase in the levels of intracellular cAMP. HEK-293 cells expressing MCR-4 were suspended in 10 mM HEPES/Earle's Balanced Salt Solution at pH 7.5 with the phosphodiesterase inhibitor IBMX, and pre-incubated for 30 minutes with the compounds (0.5-5000 nM). The cells were then treated with AgRP (10 nM) and incubated further for 30 minutes. The cells were then treated with forskolin (10 μM) and incubated for an additional 60 minutes. Cells were lysed and cAMP was measured by EIA kit (Amersham).

SMILES | Ki [1] | functional status at MC5-R [2] | Ki [3] | Inhibition at 1 μM (NDP-α-MSH) MC1-R ([3]; 1 μM compound) | activity on AgRP induced inverse agonism [4] | effect on AgRP-induced decrease in cAMP levels [5] | effect on AgRP inhibition of forskolin-stimulated cAMP levels [6]
CC(C)C[C@@H]1CN(C(=O)[C@H](N)Cc2ccc(Cl)cc2Cl)[C@@H](CCCNC(=N)N)CN1CCc1ccc2ccccc2c1 [Example 4, N-{3-[1-[2(R)-Amino-3-(2,4-dichloro-phenyl)-propionyl]-5(R)-isobutyl-4-(2-naphthalen-2-yl-ethyl)-piperazin-2(S)-yl]-propyl}-guanidine] | 87 nM | partial agonist (intrinsic activity between 0.1 (10%) and 0.7 (70%) is classified as a partial agonist) | 1360 nM | 21% | antagonistic activity | reversal of AgRP-induced decrease in the levels of cAMP | 
CC(=O)N[C@H](Cc1ccc(C)cc1C)C(=O)N1C[C@@H](C)N(CCc2ccc3ccccc3c2)C[C@@H]1CCCNC(=N)N [Example 26, N-{1(R)-(2,4-Dimethyl-benzyl)-2-[2(S)-(3-guanidino-propyl)-5(R)-methyl-4-(2-naphthalen-2-yl-ethyl)-piperazin-1-yl]-2-oxo-ethyl}-acetamide] | 74 nM |  |  |  |  |  | reversal of AgRP inhibition
Cc1ccc(C[C@@H](N)C(=O)N2C[C@@H](C)N(CCc3ccc4ccccc4c3)C[C@@H]2CCCNC(=N)N)c(C)c1 [Example 28, N-{3-[1-[2(R)-Amino-3-(2,4-dimethyl-phenyl)-propionyl]-5(R)-methyl-4-(2-naphthalen-2-yl-ethyl)-piperazin-2(S)-yl]-propyl}-guanidine] | 167 nM |  |  |  |  |  | reversal of AgRP inhibition
